{"source": "patent US20240383954A1", "about": "“PEPTIDE INHIBITORS OF INTERLEUKIN-23 RECEPTOR AND THEIR USE TO TREAT INFLAMMATORY DISEASES” (Janssen Biotech, Inc., priority 2020, published 2024)", "note": "Positions of bridges follow the written chain, without caps; N, C: chain ends. Non-standard residues stand in square brackets, D forms with d. Residues, ends and D or L forms follow the SMILES beside them. *: point of attachment. Trp(7-Me) = Cc1cccc2c(C[C@H](N)C(=O)O)c[nH]c12; 2Nal = N[C@@H](Cc1ccc2ccccc2c1)C(=O)O; AEF = NCCOc1ccc(C[C@H](N)C(=O)O)cc1; Cyclopropanecarbonyl = O=C(C1CC1)*; αMeF = C[C@](N)(Cc1ccccc1)C(=O)O; Cit = NC(=O)NCCC[C@H](N)C(=O)O; αMeL = CC(C)C[C@](C)(N)C(=O)O; Pen = CC(C)(S)[C@H](N)C(=O)O; Thp = NC1(C(=O)O)CCOCC1; Hexanoyl = CCCCCC(=O)*; Propionyl = CCC(=O)*;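 further: cryopreserved PBMCs stimulated at 37 °C in 5% CO2, then lysed, with phosphorylated STAT3 quantified in lysates using a phospho-STAT panel kit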", "data": [{"target": "IL-23R (Homo sapiens, UniProt Q5VWK5)", "sequence (Q5VWK5 24-629)": "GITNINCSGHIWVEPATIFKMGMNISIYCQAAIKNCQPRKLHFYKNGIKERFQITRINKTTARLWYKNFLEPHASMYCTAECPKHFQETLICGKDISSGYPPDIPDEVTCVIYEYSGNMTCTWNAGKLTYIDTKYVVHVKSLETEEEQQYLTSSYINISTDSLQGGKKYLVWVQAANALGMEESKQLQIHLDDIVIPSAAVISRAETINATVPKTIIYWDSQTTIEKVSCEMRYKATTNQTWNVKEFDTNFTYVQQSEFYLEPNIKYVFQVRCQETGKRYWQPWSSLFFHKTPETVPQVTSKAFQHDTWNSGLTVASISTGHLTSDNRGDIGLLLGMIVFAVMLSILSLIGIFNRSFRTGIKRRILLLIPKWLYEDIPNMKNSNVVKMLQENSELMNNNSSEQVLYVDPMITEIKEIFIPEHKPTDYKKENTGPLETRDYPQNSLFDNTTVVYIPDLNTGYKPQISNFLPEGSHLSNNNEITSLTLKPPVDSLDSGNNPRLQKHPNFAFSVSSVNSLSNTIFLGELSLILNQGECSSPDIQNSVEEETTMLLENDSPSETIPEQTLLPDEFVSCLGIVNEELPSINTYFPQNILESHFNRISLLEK", "assay": "cell-based", "conditions": "PBMC pSTAT3 IC50 (nM), PBMCs from healthy donors, IL-23 5 ng/mL, 30 minutes, phosphorylated STAT3", "units": {"IC50": "nM"}, "values": [{"smiles": "CC(=O)N[C@H](CCCNC(=N)N)C(=O)N[C@@H]1C(=O)N[C@@H](CC(N)=O)C(=O)N[C@@H]([C@@H](C)O)C(=O)N[C@@H](Cc2c[nH]c3c(C)cccc23)C(=O)N[C@@H](CCCNC(N)=O)C(=O)N[C@H](C(=O)N[C@@H](Cc2ccc(OCCN)cc2)C(=O)N[C@@H](Cc2ccc3ccccc3c2)C(=O)N[C@@](C)(CC(C)C)C(=O)N[C@@H](CCC(=O)O)C(=O)N[C@@H](CC(N)=O)C(=O)N[C@@](C)(Cc2ccccc2)C(N)=O)C(C)(C)SSC1(C)C", "note": "[Compound 149, Ac-[(D)Arg]-[Pen]-N-T-[W(7-Me)]-[Cit]-[Pen]-Phe[4-(2-aminoethoxy)]-[2-Nal]-[aMeLeu]-E-N-[a-MePhe]-NH2] (Ac-[dR][Pen]NT[Trp(7-Me)][Cit][Pen][AEF][2Nal][αMeL]EN[αMeF]-NH2; disulfide 2-7)", "IC50": 2.3}, {"smiles": "CC(=O)NCCCC[C@@H]1NC(=O)[C@H](Cc2c[nH]c3c(C)cccc23)NC(=O)[C@H]([C@@H](C)O)NC(=O)[C@H](CC(N)=O)NC(=O)[C@@H](NC(C)=O)CSSC[C@@](C)(C(=O)N[C@@H](Cc2ccc(OCCN)cc2)C(=O)N[C@@H](Cc2ccc3ccccc3c2)C(=O)N[C@@](C)(CCCCN)C(=O)N[C@@H](CCCCNC(C)=O)C(=O)N[C@@H](CC(N)=O)C(=O)NC2(C(N)=O)CCOCC2)NC1=O", "note": "[Compound 117, Ac-[Cys]-N-T-[W(7-Me)]-[Lys(Ac)]-[aMeCys]-Phe[4-(2-aminoethoxy)]-[2-Nal]-[a-MeLys]-[Lys(Ac)]-N-[THP]-NH2]", "IC50": 7.1}, {"smiles": "CC(=O)NCCCC[C@@H]1NC(=O)[C@H](Cc2c[nH]c3c(C)cccc23)NC(=O)[C@H]([C@@H](C)O)NC(=O)[C@H](CC(N)=O)NC(=O)[C@@H](NC(C)=O)C(C)(C)SSC(C)(C)[C@@H](C(=O)N[C@@H](Cc2ccc(OCCN)cc2)C(=O)N[C@@H](Cc2ccc3ccccc3c2)C(=O)N[C@@](C)(CCCCN)C(=O)N[C@@H](CCCCNC(C)=O)C(=O)N[C@@H](CC(N)=O)C(=O)NC2(C(=O)N[C@H](Cc3ccc(O)cc3)C(N)=O)CCOCC2)NC1=O", "note": "[Compound 107, Ac-[Pen]-N-T-[W(7-Me)]-[Lys(Ac)]-[Pen]-Phe[4-(2-aminoethoxy)]-[2-Nal]-[a-MeLys]-[Lys(Ac)]-N-[THP]-[(D)Tyr]-NH2]", "IC50": 11}, {"smiles": "CC(=O)N[C@H](CCCNC(=N)N)C(=O)N[C@@H]1C(=O)N[C@@H](CCC(N)=O)C(=O)N[C@@H]([C@@H](C)O)C(=O)N[C@@H](Cc2c[nH]c3ccccc23)C(=O)N[C@@H](CCC(N)=O)C(=O)N[C@H](C(=O)N[C@@H](Cc2ccc(OCCN)cc2)C(=O)N[C@@H](Cc2ccc3ccccc3c2)C(=O)NC2(C(=O)N[C@@H](CCCCNC(=O)C3CC3)C(=O)N[C@@H](CC(N)=O)C(=O)N[C@@H](Cc3ccccc3)C(N)=O)CCOCC2)C(C)(C)SSC1(C)C", "note": "[Compound 55, Ac-[(D)Arg]-[Pen]-Q-T-W-Q-[Pen]-Phe[4-(2-aminoethoxy)]-[2-Nal]-[THP]-[Lys(COcPr)]-N-F-NH2] (Ac-[dR][Pen]QTWQ[Pen][AEF][2Nal][Thp]K(Cyclopropanecarbonyl)NF-NH2; disulfide 2-7)", "IC50": 25}, {"smiles": "CCC(=O)N[C@H](CCCNC(=N)N)C(=O)N[C@@H]1C(=O)N[C@@H](CCC(N)=O)C(=O)N[C@@H]([C@@H](C)O)C(=O)N[C@@H](Cc2c[nH]c3ccccc23)C(=O)N[C@@H](CCC(N)=O)C(=O)N[C@H](C(=O)N[C@@H](Cc2ccc(OCCN)cc2)C(=O)N[C@@H](Cc2ccc3ccccc3c2)C(=O)NC2(C(=O)N[C@@H](CCC(=O)O)C(=O)N[C@@H](CC(N)=O)C(=O)N[C@@](C)(Cc3ccccc3)C(N)=O)CCOCC2)C(C)(C)SSC1(C)C", "note": "[Compound 3, [Propionic_acid]-[(D)Arg]-[Pen]-Q-T-W-Q-[Pen]-Phe[4-(2-aminoethoxy)]-[2-Nal]-[THP]-E-N-[a-MePhe]-NH2] (Propionyl-[dR][Pen]QTWQ[Pen][AEF][2Nal][Thp]EN[αMeF]-NH2; disulfide 2-7)", "IC50": 40}, {"smiles": "CC(=O)N[C@H](CCCNC(=N)N)C(=O)N[C@H]1CCSC[C@@H](C(=O)N[C@@H](Cc2ccc(OCCN)cc2)C(=O)N[C@@H](Cc2ccc3ccccc3c2)C(=O)NC2(C(=O)N[C@@](C)(CCC(=O)O)C(=O)N[C@@H](CC(N)=O)C(=O)N[C@@H](Cc3c[nH]c4ccc(F)cc34)C(N)=O)CCOCC2)NC(=O)[C@H](CCC(N)=O)NC(=O)[C@H](Cc2c[nH]c3ccccc23)NC(=O)[C@H]([C@@H](C)O)NC(=O)[C@H](CCC(N)=O)NC1=O", "note": "[Compound 81, Ac-[(D)Arg]-[Abu]-Q-T-W-Q-[Cys]-Phe[4-(2-aminoethoxy)]-[2-Nal]-[THP]-[aMeGlu]-N-[W(5-F)]-NH2]", "IC50": 30}, {"smiles": "CC(=O)NCCCC[C@@H]1NC(=O)[C@H](Cc2c[nH]c3c(C)cccc23)NC(=O)[C@H]([C@@H](C)O)NC(=O)[C@H](CC(N)=O)NC(=O)[C@@H](NC(C)=O)C(C)(C)SSC(C)(C)[C@@H](C(=O)N[C@@H](Cc2ccc(OCCN)cc2)C(=O)N[C@@H](Cc2ccc3ccccc3c2)C(=O)N[C@@](C)(CCCCN)C(=O)N[C@@H](CCCCNC(C)=O)C(=O)N[C@@H](CC(N)=O)C(=O)N[C@@](C)(Cc2ccc(O)cc2)C(N)=O)NC1=O", "note": "[Compound 151, Ac-[Pen]-N-T-[W(7-Me)]-[Lys(Ac)]-[Pen]-Phe[4-(2-aminoethoxy)]-[2-Nal]-[a-MeLys]-[Lys(Ac)]-N-[aMeTyr]-NH2]", "IC50": 5.7}, {"smiles": "CC(=O)NCCCC[C@@H]1NC(=O)[C@H](Cc2c[nH]c3c(C)cccc23)NC(=O)[C@H]([C@@H](C)O)NC(=O)[C@H](CC(N)=O)NC(=O)[C@@H](NC(C)=O)C(C)(C)SSC(C)(C)[C@@H](C(=O)N[C@@H](Cc2ccc(OCCN)cc2)C(=O)N[C@@H](Cc2ccc3ccccc3c2)C(=O)N[C@@](C)(CCCCN)C(=O)N[C@@H](CCCCNC(C)=O)C(=O)N[C@@H](CC(N)=O)C(=O)NC2(C(N)=O)CCOCC2)NC1=O", "note": "[Compound 75, Ac-[Pen]-N-T-[W(7-Me)]-[Lys(Ac)]-[Pen]-Phe[4-(2-aminoethoxy)]-[2-Nal]-[a-MeLys]-[Lys(Ac)]-N-[THP]-NH2]", "IC50": 8.9}, {"smiles": "CCC(=O)NCCCC[C@H](NC(=O)C1(NC(=O)[C@H](Cc2ccc3ccccc3c2)NC(=O)[C@H](Cc2ccc(OCCN)cc2)NC(=O)[C@H]2NC(=O)[C@H](CCC(N)=O)NC(=O)[C@H](Cc3c[nH]c4ccccc34)NC(=O)[C@H]([C@@H](C)O)NC(=O)[C@H](CCC(N)=O)NC(=O)[C@@H](NC(=O)[C@@H](CCCNC(=N)N)NC(C)=O)C(C)(C)SSC2(C)C)CCOCC1)C(=O)N[C@@H](CC(N)=O)C(=O)NC1(C(N)=O)CCOCC1", "note": "[Compound 57, Ac-[(D)Arg]-[Pen]-Q-T-W-Q-[Pen]-Phe[4-(2-aminoethoxy)]-[2-Nal]-[THP]-[Lys(COEt)]-N-[THP]-NH2]", "IC50": 18}, {"smiles": "CCC(=O)NCCCC[C@H](NC(=O)C1(NC(=O)[C@H](Cc2ccc3ccccc3c2)NC(=O)[C@H](Cc2ccc(OCCN)cc2)NC(=O)[C@H]2NC(=O)[C@H](CCC(N)=O)NC(=O)[C@H](Cc3c[nH]c4ccccc34)NC(=O)[C@H]([C@@H](C)O)NC(=O)[C@H](CCC(N)=O)NC(=O)[C@@H](NC(=O)[C@@H](CCCNC(=N)N)NC(C)=O)C(C)(C)SSC2(C)C)CCOCC1)C(=O)N[C@@H](CC(N)=O)C(=O)N[C@@H](Cc1ccccc1)C(N)=O", "note": "[Compound 54, Ac-[(D)Arg]-[Pen]-Q-T-W-Q-[Pen]-Phe[4-(2-aminoethoxy)]-[2-Nal]-[THP]-[Lys(COEt)]-N-F-NH2] (Ac-[dR][Pen]QTWQ[Pen][AEF][2Nal][Thp]K(Propionyl)NF-NH2; disulfide 2-7)", "IC50": 47}, {"smiles": "CC(=O)NCCCC[C@@H]1NC(=O)[C@H](Cc2c[nH]c3ccccc23)NC(=O)[C@H]([C@@H](C)O)NC(=O)[C@H](CC(N)=O)NC(=O)[C@@H](NC(=O)[C@@H](CCCNC(=N)N)NC(C)=O)C(C)(C)SSC(C)(C)[C@@H](C(=O)N[C@@H](Cc2ccc(OCCN)cc2)C(=O)N[C@@H](Cc2ccc3ccccc3c2)C(=O)NC2(C(=O)N[C@@H](CCC(=O)O)C(=O)N[C@@H](CC(N)=O)C(=O)NC3(C(N)=O)CCOCC3)CCOCC2)NC1=O", "note": "[Compound 105, Ac-[(D)Arg]-[Pen]-N-T-W-[Lys(Ac)]-[Pen]-Phe[4-(2-aminoethoxy)]-[2-Nal]-[THP]-E-N-[THP]-NH2] (Ac-[dR][Pen]NTWK(Ac)[Pen][AEF][2Nal][Thp]EN[Thp]-NH2; disulfide 2-7)", "IC50": 2.2}, {"smiles": "CCCCCC(=O)NCCCC[C@H](NC(=O)C1(NC(=O)[C@H](Cc2ccc3ccccc3c2)NC(=O)[C@H](Cc2ccc(OCCN)cc2)NC(=O)[C@H]2NC(=O)[C@H](CCC(N)=O)NC(=O)[C@H](Cc3c[nH]c4ccccc34)NC(=O)[C@H]([C@@H](C)O)NC(=O)[C@H](CCC(N)=O)NC(=O)[C@@H](NC(=O)[C@@H](CCCNC(=N)N)NC(C)=O)C(C)(C)SSC2(C)C)CCOCC1)C(=O)N[C@@H](CC(N)=O)C(=O)N[C@@H](Cc1ccccc1)C(N)=O", "note": "[Compound 59, Ac-[(D)Arg]-[Pen]-Q-T-W-Q-[Pen]-Phe[4-(2-aminoethoxy)]-[2-Nal]-[THP]-[Lys(COPent)]-N-F-NH2] (Ac-[dR][Pen]QTWQ[Pen][AEF][2Nal][Thp]K(Hexanoyl)NF-NH2; disulfide 2-7)", "IC50": 67}, {"smiles": "CC(=O)NCCCC[C@@H]1NC(=O)[C@H](Cc2c[nH]c3c(C)cccc23)NC(=O)[C@H]([C@@H](C)O)NC(=O)[C@H](CC(N)=O)NC(=O)[C@@H](NC(=O)[C@@H](CCCNC(=N)N)NC(C)=O)C(C)(C)SSC(C)(C)[C@@H](C(=O)N[C@@H](Cc2ccc(OCCN)cc2)C(=O)N[C@@H](Cc2ccc3ccccc3c2)C(=O)NC2(C(=O)N[C@@H](CCC(=O)O)C(=O)N[C@@H](CC(N)=O)C(=O)NC3(C(N)=O)CCOCC3)CCOCC2)NC1=O", "note": "[Compound 92, Ac-[(D)Arg]-[Pen]-N-T-[W(7-Me)]-[Lys(Ac)]-[Pen]-Phe[4-(2-aminoethoxy)]-[2-Nal]-[THP]-E-N-[THP]-NH2] (Ac-[dR][Pen]NT[Trp(7-Me)]K(Ac)[Pen][AEF][2Nal][Thp]EN[Thp]-NH2; disulfide 2-7)", "IC50": 3.3}, {"smiles": "CC(=O)NCCCC[C@H](NC(=O)[C@](C)(CCCCN)NC(=O)[C@H](Cc1ccc2ccccc2c1)NC(=O)[C@H](Cc1ccc(OCCN)cc1)NC(=O)[C@H]1NC(=O)[C@H](CCC(N)=O)NC(=O)[C@H](Cc2c[nH]c3c(C)cccc23)NC(=O)[C@H]([C@@H](C)O)NC(=O)[C@H](CC(N)=O)NC(=O)[C@@H](NC(C)=O)C(C)(C)SSC1(C)C)C(=O)N[C@@H](CC(N)=O)C(=O)NC1(C(N)=O)CCOCC1", "note": "[Compound 87, Ac-[Pen]-N-T-[W(7-Me)]-Q-[Pen]-Phe[4-(2-aminoethoxy)]-[2-Nal]-[a-MeLys]-[Lys(Ac)]-N-[THP]-NH2]", "IC50": 3.6}]}]}
